# Molecular target: T1, C5aR (Homo sapiens, UniProt P21730)
# T1 construct: U937 cells are a monocytic cell line which express C5aR; host or cells: U937 cells (cAMP treated) or isolated neutrophils
# T1 sequence (P21730 1-350): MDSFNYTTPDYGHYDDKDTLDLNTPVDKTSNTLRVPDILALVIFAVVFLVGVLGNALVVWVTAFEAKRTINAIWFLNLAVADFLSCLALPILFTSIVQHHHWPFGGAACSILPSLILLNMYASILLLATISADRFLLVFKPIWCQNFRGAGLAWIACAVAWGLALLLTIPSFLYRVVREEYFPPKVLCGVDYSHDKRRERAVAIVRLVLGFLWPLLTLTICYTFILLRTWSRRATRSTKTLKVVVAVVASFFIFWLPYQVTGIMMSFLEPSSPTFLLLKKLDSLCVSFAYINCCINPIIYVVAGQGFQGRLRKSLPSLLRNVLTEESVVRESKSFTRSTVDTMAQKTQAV
# Test: chemotaxis assay (C5aR mediated migration)
# Format: cell-based
# Details: migration of U937 or neutrophil cells toward C5a (0.03 nM), 1.5 hours at 37° C., read-out: Mig IC50
# Experimental: U937 cells are a monocytic cell line which express C5aR, and are available from ATCC (VA). […] Cells were grown under 5% CO2/95% air, 100% humidity at 37° C. and subcultured twice weekly at 1:6 (cells were cultured at a density range of 1×10^5 to 2×10^6 cells/mL) and harvested at 1×10^6 cells/mL. Prior to assay, cells are treated overnight with 0.5 mM of cyclic AMP (Sigma, Ohio) and washed once prior to use. cAMP treated U937 cells can be used in C5aR ligand binding and functional assays.
# Optionally, human or murine neutrophils can be used to assay for compound activity. Neutrophils may be isolated from fresh human blood using density separation and centrifugation. Briefly, whole blood is incubated with equal parts 3% dextran and allowed to separate for 45 minutes. After separation, the top layer is layered on top of 15 mls of Ficoll (15 mls of Ficoll for every 30 mls of blood suspension) and centrifuged for 30 minutes at 400×g with no brake. The pellet at the bottom of the tube is then isolated and resuspended into PharmLyse RBC Lysis Buffer (BD Biosciences, San Jose, Calif.) after which the sample is again centrifuged for 10 minutes at 400×g with brake. The remaining cell pellet is resuspended as appropriate and consists of isolated neutrophils.
# Optionally, compounds may be further assayed for their ability to inhibit chemotaxis in cells. Chemotaxis assays are performed using 5 μm pore polycarbonate, polyvinylpyrrolidone-coated filters in 96-well chemotaxis chambers (Neuroprobe; Gaithersburg, Md.) using chemotaxis buffer (Hank's balanced salt solution (HBSS) and 1% FBS). C5aR ligands (i.e., C5a, R&D Systems; Minneapolis, Minn.) are use to evaluate compound mediated inhibition of C5aR mediated migration. Other chemokines (i.e., SDF-1α; R&D Systems; Minneapolis, Minn.) are used as specificity controls. […] The chambers are incubated 1.5 hours at 37° C., and the number of cells in the lower chamber quantified either by direct cell counts in five high powered fields per well or by the CyQuant assay (Molecular Probes), a fluorescent dye method that measures nucleic acid content and microscopic observation.
row,SMILES,IC50
1,Cc1cccc(C)c1-n1nc2c(c1-c1c(F)cc(Cl)c3[nH]ccc13)CN(c1ncc(C(C)C)cc1F)CC2 [Example 1.105],5 to 50 nM
2,Cc1cccc(C)c1-n1nc2c(c1-c1c(F)cc(Cl)c3[nH]ccc13)CN(c1ccc(C(C)C)cn1)CC2 [Example 1.106],< 5 nM
3,Cc1cccc(C)c1-n1nc2c(c1-c1ccc(C)c3[nH]ccc13)CN(c1ncc(C(F)(F)F)cn1)CC2 [Example 1.107],5 to 50 nM
4,Cc1cccc(C)c1-n1nc2c(c1-c1ccc(C)c3[nH]ccc13)CN(c1ncc(C(F)(F)F)cc1F)CC2 [Example 1.108],5 to 50 nM
5,CCc1cccc(CC)c1-n1nc2c(c1-c1c(F)cc(Cl)c3[nH]ccc13)CN(c1ccc(C(C)C)cn1)CC2 [Example 1.109],< 5 nM
6,CCc1cccc(CC)c1-n1nc2c(c1-c1ccc(Cl)c3[nH]ccc13)CN(c1nccc(C)n1)CC2 [Example 1.110],5 to 50 nM
7,COc1cnc(N2CCc3nn(-c4c(C)cccc4C)c(-c4c(F)cc(Cl)c5[nH]ccc45)c3C2)nc1 [Example 1.111],5 to 50 nM
8,COc1cnc(N2CCc3nn(-c4c(C)cccc4C)c(-c4ccc(Cl)c5[nH]ccc45)c3C2)nc1 [Example 1.112],5 to 50 nM
9,CCc1cccc(CC)c1-n1nc2c(c1-c1ccc(Cl)c3[nH]ccc13)CN(c1nccc(OC)n1)CC2 [Example 1.113],< 5 nM
10,COc1cnc(N2CCc3nn(-c4c(C)cccc4C)c(-c4ccc(C)c5[nH]ccc45)c3C2)nc1 [Example 1.114],5 to 50 nM
11,CCc1cccc(CC)c1-n1nc2c(c1-c1cc(F)c(C)c3[nH]ccc13)CN(c1ncc(C(C)C)cn1)CC2 [Example 1.115],< 5 nM
12,CCc1cccc(CC)c1-n1nc2c(c1-c1cc(F)c(F)c3[nH]ccc13)CN(c1ccc(C(F)(F)F)cn1)CC2 [Example 1.116],5 to 50 nM
13,CCc1cccc(CC)c1-n1nc2c(c1-c1cc(F)c(F)c3[nH]ccc13)CN(c1ncc(C(C)C)cn1)CC2 [Example 1.117],5 to 50 nM
14,CCc1cccc(CC)c1-n1nc2c(c1-c1cc(F)c(F)c3[nH]ccc13)CN(c1ncc(C(F)(F)F)cn1)CC2 [Example 1.118],5 to 50 nM
15,CCc1cccc(CC)c1-n1nc2c(c1-c1ccc(Cl)c3[nH]ncc13)CN(c1ncc(C(F)(F)F)cc1F)CC2 [Example 1.119],5 to 50 nM
16,CCc1cccc(CC)c1-n1nc2c(c1-c1cc(F)c(F)c3[nH]ccc13)CN(c1ncc(C(F)(F)F)cc1F)CC2 [Example 1.120],5 to 50 nM
17,CCc1cccc(CC)c1-n1nc2c(c1-c1ccc(Cl)c3[nH]ccc13)CN(c1ncc(Cl)c(OC)n1)CC2 [Example 1.121],5 to 50 nM
18,Cc1cccc(C)c1-n1nc2c(c1-c1c(F)cc(Cl)c3[nH]ccc13)CN(c1ncc(C(F)(F)F)cn1)CC2 [Example 1.122],5 to 50 nM
19,CCc1cccc(CC)c1-n1nc2c(c1-c1cc(F)c(C)c3[nH]ccc13)CN(c1ncc(C(F)(F)F)cc1F)CC2 [Example 1.123],< 5 nM
20,Cc1cccc(C)c1-n1nc2c(c1-c1c(F)cc(Cl)c3[nH]ccc13)CN(c1ncc(C(F)(F)F)cc1F)CC2 [Example 1.124],5 to 50 nM
21,CCc1cccc(CC)c1-n1nc2c(c1-c1c(F)cc(Cl)c3[nH]ccc13)CN(c1ncc(C(C)C)cc1F)CC2 [Example 1.125],< 5 nM
22,CCc1cccc(CC)c1-n1nc2c(c1-c1ccc(Cl)c3[nH]ccc13)CN(c1ncc(OC)cn1)CC2 [Example 1.126],< 5 nM
23,CCc1cccc(CC)c1-n1nc2c(c1-c1ccc(C)c3[nH]ccc13)CN(c1ccc(C(C)C)cn1)CC2 [Example 1.127],< 5 nM
24,CCc1cccc(CC)c1-n1nc2c(c1-c1c(F)cc(C)c3[nH]ccc13)CN(c1ccc(C(C)C)cn1)CC2 [Example 1.128],< 5 nM
25,CCc1cccc(CC)c1-n1nc2c(c1-c1ccc(Cl)c3[nH]ccc13)CN(c1nccc(N)n1)CC2 [Example 1.129],50 to 500 nM
26,Cc1cccc(C)c1-n1nc2c(c1-c1ccc(C)c3[nH]ccc13)CN(c1ccc(C(F)(F)F)cn1)CC2 [Example 1.130],5 to 50 nM
27,Cc1cccc(C)c1-n1nc2c(c1-c1ccc(C)c3[nH]ccc13)CN(c1ncc(C(C)C)cn1)CC2 [Example 1.131],5 to 50 nM

row,SMILES,IC50
1,CCc1cccc(CC)c1-n1nc2c(c1-c1c(F)cc(Cl)c3[nH]ccc13)CN(c1ncc(C(C)C)cn1)CC2 [Example 1.132],< 5 nM
2,CCc1cccc(CC)c1-n1nc2c(c1-c1c(F)cc(Cl)c3[nH]ccc13)CN(c1ccc(C(F)(F)F)cn1)CC2 [Example 1.133],< 5 nM
3,COc1cccc(C)c1-n1nc2c(c1-c1ccc3[nH]ccc3c1)CN(C(=O)OC(C)(C)C)CC2 [Example 1.134],50 to 500 nM
4,CCc1cccc(CC)c1-n1nc2c(c1-c1ccc(Cl)c3[nH]ccc13)CN(c1ccc(C(C)C)cn1)CC2 [Example 1.135],< 5 nM
5,CCc1cccc(CC)c1-n1nc2c(c1-c1ccc(C)c3[nH]ccc13)CN(c1ncc(C(C)C)cc1F)CC2 [Example 1.136],< 5 nM
6,CCc1cccc(CC)c1-n1nc2c(c1-c1c(F)cc(Cl)c3[nH]ccc13)CN(c1ncc(C(F)(F)F)cn1)CC2 [Example 1.137],< 5 nM
7,CCc1cccc(CC)c1-n1nc2c(c1-c1ccc(Cl)c3[nH]ccc13)CN(c1nccc(C(F)(F)F)n1)CC2 [Example 1.138],< 5 nM
8,CCc1cccc(CC)c1-n1nc2c(c1-c1c(F)cc(C)c3[nH]ccc13)CN(c1ncc(C(C)C)cn1)CC2 [Example 1.139],< 5 nM
9,CCc1cccc(CC)c1-n1nc2c(c1-c1ccc(C)c3[nH]ccc13)CN(c1ncc(C(F)(F)F)cn1)CC2 [Example 1.140],< 5 nM
10,CCc1cccc(CC)c1-n1nc2c(c1-c1c(F)cc(C)c3[nH]ccc13)CN(c1ncc(C(F)(F)F)cn1)CC2 [Example 1.141],< 5 nM
11,CCc1cccc(CC)c1-n1nc2c(c1-c1ccc(C)c3[nH]ccc13)CN(c1ccc(C(F)(F)F)cn1)CC2 [Example 1.142],< 5 nM
12,CCc1cccc(CC)c1-n1nc2c(c1-c1c(F)cc(C)c3[nH]ccc13)CN(c1ccc(C(F)(F)F)cn1)CC2 [Example 1.143],< 5 nM
13,CCc1cccc(CC)c1-n1nc2c(c1-c1c(F)cc(Cl)c3[nH]ccc13)CN(c1ncc(C(F)(F)F)cc1F)CC2 [Example 1.144],< 5 nM
14,CCc1cccc(CC)c1-n1nc2c(c1-c1c(F)cc(C)c3[nH]ccc13)CN(c1ncc(C(C)C)cc1F)CC2 [Example 1.145],< 5 nM
15,CCc1cccc(CC)c1-n1nc2c(c1-c1ccc(Cl)c3[nH]cc(C)c13)CN(c1ncc(C(F)(F)F)cc1F)CC2 [Example 1.146],< 5 nM
16,CCc1cccc(CC)c1-n1nc2c(c1-c1ccc(C)c3[nH]ccc13)CN(c1ncc(C(C)C)cn1)CC2 [Example 1.147],< 5 nM
17,CCc1cccc(CC)c1-n1nc2c(c1-c1ccc(Cl)c3[nH]ccc13)CN(c1nc(C)cc(C)n1)CC2 [Example 1.148],< 5 nM
18,CCc1cccc(CC)c1-n1nc2c(c1-c1ccc(Cl)c3[nH]ccc13)CN(C(=O)Nc1ccccc1)CC2 [Example 1.149],5 to 50 nM
19,CCc1cccc(CC)c1-n1nc2c(c1-c1c(F)cc(C)c3[nH]ccc13)CN(c1ncc(C(F)(F)F)cc1F)CC2 [Example 1.150],< 5 nM
20,Cc1cccc(C)c1-n1nc2c(c1-c1ccc(Cl)c3[nH]ccc13)CN(c1ncc(C(C)C)cn1)CC2 [Example 1.151],< 5 nM
21,CCc1cccc(CC)c1-n1nc2c(c1-c1ccc(Cl)c3[nH]ccc13)CN(c1ncc(C(C)C)cc1F)CC2 [Example 1.152],< 5 nM
22,Cc1cccc(C)c1-n1nc2c(c1-c1ccc(Cl)c3[nH]ccc13)CN(c1ncc(C(C)C)cc1F)CC2 [Example 1.153],5 to 50 nM
23,Cc1cnc(N2CCc3nn(-c4c(C)cccc4C)c(-c4ccc(Cl)c5[nH]ccc45)c3C2)nc1 [Example 1.154],5 to 50 nM
24,Cc1cccc(C)c1-n1nc2c(c1-c1ccc(Cl)c3[nH]ccc13)CN(c1ncc(Cl)cn1)CC2 [Example 1.155],5 to 50 nM
25,CCc1cccc(CC)c1-n1nc2c(c1-c1ccc(Cl)c3[nH]ccc13)CN(c1ncc(C)cn1)CC2 [Example 1.156],< 5 nM
26,CCc1cccc(CC)c1-n1nc2c(c1-c1ccc(Cl)c3[nH]ccc13)CN(c1ncccn1)CC2 [Example 1.157],< 5 nM
27,CCc1cccc(CC)c1-n1nc2c(c1-c1ccc(Cl)c3[nH]ccc13)CN(c1ncc(F)cn1)CC2 [Example 1.158],< 5 nM
